Test results reported in EP0230023B1, “Pharmaceutical compositions for the enhancement of wound healing” (MARION MERRELL DOW INC., priority 1985, dated 1987).

Assays:
[1] = system: granulation tissue; test: Subcutaneous Ivalon sponge implantation, histological analysis of granulation tissue formation; assay type: in vivo, Sprague-Dawley rats; conditions: for Sponge: score on the 0-4 scale, tested in a similar manner to collagen/sucrose octasulfate, potassium salts
Experimental: By means of subcutaneous implantation of Ivalon sponges the phase of granulation tissue formation in the repair process can be evaluated. Following a vigorous cleanup procedure the sponge material evokes only minimal inflammatory response. Sterile sponges prepared as set forth in Example 12 were injected with a 50 µl suspension of collagen/sucrose octasulfate suspension prepared as in Example 12. […] The sponges were surgically implanted into 350-500 g, male Sprague-Dawley rats. Before the implantation procedure three rats were anesthetized and their dorsal surfaces shaved and wiped with Predodyne (West Chemical Products, Lynbrook, N.Y.). Six 6 mm incisions were cut in groups of two (one on each side of the vertebral column rostrally, centrally and caudally), spaced equi-distant from each other between the pectoral and pelvic girdles on the dorsal surface. At each incision a pocket was made between the panniculus carnosus and the dermis and two sponges inserted into it, one rostrally and the other caudally; a total of 12 sponges were thus implanted in each animal. The position of each test preparation was alternated between the rostral, central and caudal positions to control the variation due to anatomical location. The incisions were closed with 11-mm Michel wound clips (Propper, Long Island City, N.Y.). Seven days following implantation the animals were sacrificed and the sponges surgically removed with their adhered connective tissue capsules. Controls, sponges injected with either PBS or collagen only were treated in a similar manner. In all, approximately 120 sponges per group were used in the study and randomly selected for biochemical and histologic analysis. The sponges were fixed in formalin and embedded in either plastic or Paraplast following dehydration. Sections were stained with hemotocylin and eosin, trichrome, silver or PAS. […] Mesenchymal cell infiltration was also scored on a predetermined scale from 0-4. […] Although the whole sponge area was used for analysis we noted that the most striking differences between the various treatments were evident in the center of the sponge. Therefore, the histologic appearance of the central zone was selected for presentation.

[2] = system: rabbit corneas; test: Rabbit cornea assay for angiogenesis; assay type: in vivo; conditions: grade on scale 0-4+ in rabbit cornea; potassium salts
Experimental: This may offer an explanation for the dense vascular bed that characterized the granulation tissue in the in-vivo experiments. Sucrose octasulate at concentrations of 0.1 to 100 µg/ml was encapsulated in Hydron and implanted in rabbit corneas. The method used was that described in Surgery 96:48-54, 1984. The […] solution (sucrose octasulfate or PBS) was mixed with an equal volume of Hydron and allowed to polymerize under reduced pressure. […] Eyes were evaluated at days 1 through 14 post-implantation for gross inflammation and, as described by Hunt, et al, in Surgery 96:48-54, 1984, for angiogenesis. Corneal neovascularization was graded on a scale of 0-4+ (integers only being assigned). Zero denotes a normal eye with no ingrowth on limbal vessels into the corneal stroma; 1+, up to 1 mm of capillary ingrowth in a localized arc adjacent to the injection site; 2+, […] ingrowth; 3+, 2-3 mm ingrowth; and 4+, 3 mm or greater ingrowth in a wide arc along the limbal edge toward the injection site. […] To ascertain that the observed angiogenesis was not secondary to an inflammatory process some eyes with a positive response were removed and stained with H&E and a nonspecific esterase stain as early as two days after implantation.

[3] = system: fibroblasts; test: Cell migration assay (Boyden chamber); assay type: cell-based; set-up: Chemokinesis: scale not given here; conditions: score, Boyden chamber, scale not defined; potassium salts
Experimental: Stimulation of directed movement of fibroblasts was assayed as described by Banda M.J., Knighton D.R., Hunt T.K., Werb A., Isolation of a nonmitogenic angiogenesis factor from wound fluid, Proc. Natl. Acad. Sci. 79:7773-7777, 1982. Briefly, solutions of sucrose octasulfate in PBS in concentrations resulting in final concentrations ranging from 10 -² to 10 -⁷ g/ml diluted to a final volume of 300 µℓ in DMEM supplemented with 10 percent rabbit platelet-poor plasma serum were placed in the bottom of Boyden blind-well chambers. Polylysine-coated, 5 µ -pore diameter, polycarbonate filters (Nucleopore) were placed over the test solution and 1.75-3.0 x 10⁶ fibroblasts suspended in DMEM added to the top compartment. The chambers were incubated for two and a half hours at 37 °C,
At the end of incubation of the top filter was fixed, stained and evaluated by counting the number of cells that had migrated to the bottom side of the filter. For each experiment five random fields per filter and at least 15 filters per each concentration of sucrose octasulfate were conducted. […]

Molecule	Sponge [1]	Angiogenesis [2]	Chemokinesis [3]	histologic response in sponge ([1]; similar tests with sucralfate)
O=S(=O)([O-])OC[C@H]1O[C@@H](O[C@H]2[C@H](OS(=O)(=O)[O-])[C@@H](OS(=O)(=O)[O-])[C@H](OS(=O)(=O)[O-])O[C@@H]2COS(=O)(=O)[O-])[C@H](OS(=O)(=O)[O-])[C@@H](OS(=O)(=O)[O-])[C@H]1OS(=O)(=O)[O-].[K+].[K+].[K+].[K+].[K+].[K+].[K+].[K+] [Beta-Lactose Octasulfate, potassium β -lactose octasulfate]	3.0	3.0	3.0	–
O=C[C@H](OS(=O)(=O)[O-])[C@@H](OS(=O)(=O)[O-])[C@H](OS(=O)(=O)[O-])[C@@H](COS(=O)(=O)[O-])OS(=O)(=O)[O-].[K+].[K+].[K+].[K+].[K+] [Glucose Pentasulfate, potassium glucose pentasulfate]	2.5	2.0	3.0	–
O=C[C@H](O)[C@@H](O)[C@H](O)[C@H](O)COS(=O)(=O)[O-].[K+] [Glucose-6-Sulfate, potassium D-glucose-6-sulfate, reference compound]	1	1	1	–
O=S(=O)(O)OC[C@H]1O[C@@H](OS(=O)(=O)O)[C@H](OS(=O)(=O)O)[C@@H](OS(=O)(=O)O)[C@@H]1O[C@H]1O[C@H](COS(=O)(=O)O)[C@@H](OS(=O)(=O)O)[C@H](OS(=O)(=O)O)[C@H]1OS(=O)(=O)O [Maltose Octasulfate, potassium maltose octasulfate]	3.0	3.0	3.0	–
O=C[C@@H](OS(=O)(=O)[O-])[C@@H](OS(=O)(=O)[O-])[C@H](OS(=O)(=O)[O-])[C@@H](COS(=O)(=O)[O-])OS(=O)(=O)[O-].[K+].[K+].[K+].[K+].[K+] [Mannose Pentasulfate, potassium mannose pentasulfate]	3.0	3.0	4.0	–
O=S(=O)([O-])OC[C@H]1O[C@H](O[C@H]2O[C@H](COS(=O)(=O)[O-])[C@@H](OS(=O)(=O)[O-])[C@H](OS(=O)(=O)[O-])[C@H]2OS(=O)(=O)[O-])[C@H](OS(=O)(=O)[O-])[C@@H](OS(=O)(=O)[O-])[C@@H]1OS(=O)(=O)[O-].[K+].[K+].[K+].[K+].[K+].[K+].[K+].[K+] [Trehalose Octasulfate, potassium trehalose octasulfate]	3.0	3.0	2.0	–
potassium melezitose persulfate [Melezitose Undecasulfate]	1	1	1	–
potassium stachyose persulfate [Stachyose Tetradecasulfate]	2.5	2.5	2.0	–
potassium sucrose trisulfate	2.5	2.0	3.0	–
sucralfate [reference compound]	–	–	–	strong inflammatory response with no neovascularization or fibroblast migration
